{"source": "patent US20260191874A1", "about": "“FUSED AMINO PYRIMIDINE COMPOUNDS FOR TREATMENT OF AUTISM SPECTRUM DISORDER, OBSESSIVE COMPULSIVE DISORDER AND TICS” (Ovid Therapeutics Inc., priority 2024, published 2026)", "key": {"[1]": {"target": "T1, KCC2 (Homo sapiens, UniProt Q9H2X9)", "T1 construct": "expressed in transfected cells; host or cells: HEK-293 (ATCC CRL-1573)", "T1 sequence (Q9H2X9 1-1116 isoform Q9H2X9-2)": "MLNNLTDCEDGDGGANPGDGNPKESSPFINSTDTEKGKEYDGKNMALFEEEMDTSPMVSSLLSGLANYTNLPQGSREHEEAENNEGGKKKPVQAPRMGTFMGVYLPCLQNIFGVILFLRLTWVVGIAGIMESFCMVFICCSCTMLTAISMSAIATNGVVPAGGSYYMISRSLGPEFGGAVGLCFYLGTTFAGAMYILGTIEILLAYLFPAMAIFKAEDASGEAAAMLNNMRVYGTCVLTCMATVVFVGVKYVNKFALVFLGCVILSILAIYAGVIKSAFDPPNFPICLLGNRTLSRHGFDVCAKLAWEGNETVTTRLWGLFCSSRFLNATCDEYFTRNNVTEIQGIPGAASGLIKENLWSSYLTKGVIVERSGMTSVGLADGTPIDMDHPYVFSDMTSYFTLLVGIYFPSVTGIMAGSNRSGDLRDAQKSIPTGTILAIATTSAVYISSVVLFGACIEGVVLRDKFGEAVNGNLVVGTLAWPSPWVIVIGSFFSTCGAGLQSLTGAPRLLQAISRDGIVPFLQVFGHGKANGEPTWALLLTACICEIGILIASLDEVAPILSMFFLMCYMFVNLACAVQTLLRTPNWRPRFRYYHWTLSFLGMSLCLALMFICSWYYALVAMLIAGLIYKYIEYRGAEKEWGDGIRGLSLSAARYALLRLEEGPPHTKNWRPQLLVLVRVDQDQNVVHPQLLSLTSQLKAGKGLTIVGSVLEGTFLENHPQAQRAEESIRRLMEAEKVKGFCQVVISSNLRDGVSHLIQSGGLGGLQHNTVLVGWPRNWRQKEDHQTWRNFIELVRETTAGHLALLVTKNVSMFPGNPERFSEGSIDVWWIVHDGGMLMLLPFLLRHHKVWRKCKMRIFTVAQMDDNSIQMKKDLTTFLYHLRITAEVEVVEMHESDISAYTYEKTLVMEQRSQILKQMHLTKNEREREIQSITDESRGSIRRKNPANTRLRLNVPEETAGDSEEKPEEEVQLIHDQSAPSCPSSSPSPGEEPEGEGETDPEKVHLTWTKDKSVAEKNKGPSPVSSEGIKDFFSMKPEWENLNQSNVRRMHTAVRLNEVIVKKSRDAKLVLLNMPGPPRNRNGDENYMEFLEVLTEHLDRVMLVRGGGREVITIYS", "assay": "Cell surface biotinylation of KCC2 in HEK-293 cells", "type": "cell-based", "conditions": "15 min", "description": "Cell Culture and biotinylation. HEK-293 cells were purchased from ATCC (CRL-1573) and transfected with human KCC2 and GFP expression plasmids using Lipofectamine 2000. Cells were utilized for experimentation 48-72 h following transfection. Cells were biotinylated at 4° C. using NHS-Biotin. Following lysis and purification on immobilized avidin beads, cell surface and total fractions were subject to immunoblotting as outlined previously (Conway et al., 2017, supra).\nThe reliability of the biotinylation procedure was assessed via immunoblotting with antibodies against the cytosolic protein actin. Actin was present in the total lysates but was absent from the surface fractions (FIG. 2C)."}, "[2]": {"system": "panel of 144 protein kinases", "assay": "SelectScreen protein kinase panel", "type": "biochemical", "conditions": "144 protein kinases incl. PKC isoforms, OSR1, SPAK, WNK", "description": "Aliquots of HEK-293 cells expressing KCC2 were exposed to 30 μM SSA, heated from 37-55° C. The remaining level of soluble native KCC2 at each temperature was measured by immunoblotting and normalized to the level seen at 37° C. which was given a value of 1. […] This panel included protein kinase C isoforms, OSR1, SPAK (STK39) and with-no-lysine kinases (WNK), all of which phosphorylate KCC2 on multiple residues to indirectly modify its activity (Kahle et al., 2013, supra; Smalley et al., 2020, supra)."}}, "data": [{"compound": "C[C@@H]1CN(c2nc3c(c(Nc4ccc(C5CCCCC5)cc4)n2)COC3)CCO1", "note": "[Compound A, (R)—N-(4-cyclohexylphenyl)-2-(2-methylmorpholino)-5,7-dihydrofuro[3,4-d]pyrimidin-4-amine]", "values": [{"measurement": "level of KCC2 on the plasma membrane (surface/total)", "setting": "[1]; 0.3 μM", "value": "94.5±8.4 % of control"}, {"measurement": "level of KCC2 on the plasma membrane (surface/total)", "setting": "[1]; 3 μM", "value": "104.7±8.4 % of control"}, {"measurement": "effect on activity of kinase panel", "setting": "[2]", "value": "did not modify the activity"}]}]}
